These results are taken from PMC7026418, “The kinase polypharmacology landscape of clinical PARP inhibitors” (Scientific Reports, 2020).

Some targets named below: BTK (Homo sapiens, UniProt Q06187); EGFR(L747-T751del,Sins) (Homo sapiens, UniProt P00533, DEL747-750/T751S); SBK1 (Homo sapiens, UniProt Q52WX2); WEE2 (Homo sapiens, UniProt P0C1S8).
Common to all, as to assay: biochemical
Common to all, as to parameters: DiscoveRx KINOMEscan active site-directed competition binding; percent of control kinase bound to immobilised ligand

A further assay has as its target T1, MARK4 (Homo sapiens, UniProt Q96L34).
T1 sequence (Q96L34 1-752): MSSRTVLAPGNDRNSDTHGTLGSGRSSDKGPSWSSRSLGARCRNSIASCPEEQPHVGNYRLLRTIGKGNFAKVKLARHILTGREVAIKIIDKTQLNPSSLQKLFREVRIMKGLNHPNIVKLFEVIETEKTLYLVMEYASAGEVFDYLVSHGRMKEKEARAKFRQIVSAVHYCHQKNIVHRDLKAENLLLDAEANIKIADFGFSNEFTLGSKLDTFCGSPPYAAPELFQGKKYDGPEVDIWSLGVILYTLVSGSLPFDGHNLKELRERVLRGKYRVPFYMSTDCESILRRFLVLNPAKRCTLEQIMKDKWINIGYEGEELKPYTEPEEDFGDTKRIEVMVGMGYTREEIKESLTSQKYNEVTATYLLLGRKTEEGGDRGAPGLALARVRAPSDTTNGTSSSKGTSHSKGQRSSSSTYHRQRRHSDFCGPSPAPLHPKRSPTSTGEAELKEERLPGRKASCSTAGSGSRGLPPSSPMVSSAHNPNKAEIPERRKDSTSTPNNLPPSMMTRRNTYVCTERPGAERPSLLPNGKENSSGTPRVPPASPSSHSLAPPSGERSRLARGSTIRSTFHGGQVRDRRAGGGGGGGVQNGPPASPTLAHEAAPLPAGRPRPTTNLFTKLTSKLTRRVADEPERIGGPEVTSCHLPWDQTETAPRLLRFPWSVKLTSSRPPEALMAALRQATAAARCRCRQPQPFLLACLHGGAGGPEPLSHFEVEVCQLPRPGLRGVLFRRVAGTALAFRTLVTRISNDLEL

In the next assay the target is T2, MUSK (Homo sapiens, UniProt O15146).
T2 sequence (O15146 1-869): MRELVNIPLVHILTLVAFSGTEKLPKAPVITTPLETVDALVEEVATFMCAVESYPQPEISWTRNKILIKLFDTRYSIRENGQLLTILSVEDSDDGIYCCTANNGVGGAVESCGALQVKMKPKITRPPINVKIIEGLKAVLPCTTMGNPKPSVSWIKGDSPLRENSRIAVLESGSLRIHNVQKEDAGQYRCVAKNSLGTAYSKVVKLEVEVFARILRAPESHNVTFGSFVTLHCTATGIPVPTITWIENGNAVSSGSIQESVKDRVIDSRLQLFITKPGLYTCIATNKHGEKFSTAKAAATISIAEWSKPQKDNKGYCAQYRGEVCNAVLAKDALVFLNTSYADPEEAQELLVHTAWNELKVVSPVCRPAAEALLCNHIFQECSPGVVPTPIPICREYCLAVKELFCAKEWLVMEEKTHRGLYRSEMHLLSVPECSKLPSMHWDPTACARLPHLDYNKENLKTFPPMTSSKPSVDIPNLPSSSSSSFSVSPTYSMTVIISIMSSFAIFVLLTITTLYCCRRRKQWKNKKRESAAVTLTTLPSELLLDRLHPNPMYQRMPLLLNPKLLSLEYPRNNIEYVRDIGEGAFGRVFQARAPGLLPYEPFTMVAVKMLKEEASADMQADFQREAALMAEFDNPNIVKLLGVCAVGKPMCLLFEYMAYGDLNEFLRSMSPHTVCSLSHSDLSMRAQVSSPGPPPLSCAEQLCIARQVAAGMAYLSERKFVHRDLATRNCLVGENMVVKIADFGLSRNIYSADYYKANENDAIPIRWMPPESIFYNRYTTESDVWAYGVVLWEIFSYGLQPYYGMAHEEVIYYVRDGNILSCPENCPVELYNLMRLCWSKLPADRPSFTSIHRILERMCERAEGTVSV

A further assay addresses T3, PFTAIRE2 (Homo sapiens, UniProt Q96Q40).
T3 construct: gene CDK15

The next assay has as its target T4, S6K1 (Homo sapiens, UniProt P23443).
T4 construct: gene RPS6KB1

In the next assay the target is T5, p38-alpha (Homo sapiens, UniProt Q16539).
T5 construct: gene MAPK14

Another assay has as its target T6, p38-gamma (Homo sapiens, UniProt P53778).
T6 construct: gene MAPK12
T6 sequence (P53778 1-367): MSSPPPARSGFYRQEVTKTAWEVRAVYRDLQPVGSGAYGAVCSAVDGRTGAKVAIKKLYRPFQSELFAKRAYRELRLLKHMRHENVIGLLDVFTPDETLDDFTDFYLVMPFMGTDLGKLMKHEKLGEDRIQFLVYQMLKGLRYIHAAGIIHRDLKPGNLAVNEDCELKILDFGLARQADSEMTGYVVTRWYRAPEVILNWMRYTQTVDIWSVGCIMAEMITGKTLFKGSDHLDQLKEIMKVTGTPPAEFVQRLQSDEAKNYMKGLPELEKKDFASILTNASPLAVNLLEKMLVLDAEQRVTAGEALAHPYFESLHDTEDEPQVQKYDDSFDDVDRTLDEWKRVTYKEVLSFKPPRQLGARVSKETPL

Where [1] appears, read: read-out: Rucaparib / %Ctrl @ 10000nM, binding competition, % of control.
[2] abbreviates: read-out: Talazoparib (BMN 673) / %Ctrl @ 10000nM.
The mark [3] stands for this setting: read-out: Niraparib (MK-4827) / %Ctrl @ 10000nM.
Setting [4] is: read-out: Olaparib / %Ctrl @ 10000nM.

Read-outs that look alike come from different tables or passages of the source.

T3 sequence (Q96Q40 whole entry): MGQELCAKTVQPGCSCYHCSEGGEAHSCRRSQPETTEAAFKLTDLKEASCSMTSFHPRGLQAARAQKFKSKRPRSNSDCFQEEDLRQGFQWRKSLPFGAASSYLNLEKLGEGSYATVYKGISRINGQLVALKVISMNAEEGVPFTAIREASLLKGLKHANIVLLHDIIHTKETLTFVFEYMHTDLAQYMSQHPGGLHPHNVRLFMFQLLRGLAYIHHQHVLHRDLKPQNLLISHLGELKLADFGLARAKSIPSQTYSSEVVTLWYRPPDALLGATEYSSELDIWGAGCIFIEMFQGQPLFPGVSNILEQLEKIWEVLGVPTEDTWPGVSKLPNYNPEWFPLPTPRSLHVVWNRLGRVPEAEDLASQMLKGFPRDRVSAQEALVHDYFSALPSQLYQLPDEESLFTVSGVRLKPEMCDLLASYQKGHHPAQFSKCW
Chain of BTK (Q06187 whole entry): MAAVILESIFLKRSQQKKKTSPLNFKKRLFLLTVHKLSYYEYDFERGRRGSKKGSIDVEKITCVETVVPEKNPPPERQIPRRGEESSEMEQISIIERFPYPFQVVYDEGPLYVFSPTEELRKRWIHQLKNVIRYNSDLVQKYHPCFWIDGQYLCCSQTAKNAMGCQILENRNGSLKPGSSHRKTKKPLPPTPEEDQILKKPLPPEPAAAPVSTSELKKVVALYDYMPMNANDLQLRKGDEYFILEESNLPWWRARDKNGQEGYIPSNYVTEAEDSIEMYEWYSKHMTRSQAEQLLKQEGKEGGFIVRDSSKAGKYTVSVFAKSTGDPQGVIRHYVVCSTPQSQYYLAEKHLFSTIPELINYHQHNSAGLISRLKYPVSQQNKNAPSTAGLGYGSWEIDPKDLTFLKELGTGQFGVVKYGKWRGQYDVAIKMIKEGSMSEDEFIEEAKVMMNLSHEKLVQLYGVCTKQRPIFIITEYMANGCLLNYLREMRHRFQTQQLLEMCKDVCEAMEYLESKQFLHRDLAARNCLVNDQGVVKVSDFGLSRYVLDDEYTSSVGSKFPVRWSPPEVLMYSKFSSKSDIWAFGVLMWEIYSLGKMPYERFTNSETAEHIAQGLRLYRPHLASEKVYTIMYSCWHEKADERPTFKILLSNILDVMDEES
Chain of SBK1 (Q52WX2 whole entry): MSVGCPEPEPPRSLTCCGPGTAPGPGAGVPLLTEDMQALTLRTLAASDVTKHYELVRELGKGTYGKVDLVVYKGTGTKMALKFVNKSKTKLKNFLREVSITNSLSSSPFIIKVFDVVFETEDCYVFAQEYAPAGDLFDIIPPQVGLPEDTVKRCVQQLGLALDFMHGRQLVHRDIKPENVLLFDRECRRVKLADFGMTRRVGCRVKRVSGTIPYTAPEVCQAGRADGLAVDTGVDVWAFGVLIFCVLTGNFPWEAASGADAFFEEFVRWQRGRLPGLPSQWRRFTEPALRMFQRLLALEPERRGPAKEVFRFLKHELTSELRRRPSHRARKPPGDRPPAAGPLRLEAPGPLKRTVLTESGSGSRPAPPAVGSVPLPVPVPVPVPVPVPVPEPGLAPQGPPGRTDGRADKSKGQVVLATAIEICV
Chain of WEE2 (P0C1S8 whole entry): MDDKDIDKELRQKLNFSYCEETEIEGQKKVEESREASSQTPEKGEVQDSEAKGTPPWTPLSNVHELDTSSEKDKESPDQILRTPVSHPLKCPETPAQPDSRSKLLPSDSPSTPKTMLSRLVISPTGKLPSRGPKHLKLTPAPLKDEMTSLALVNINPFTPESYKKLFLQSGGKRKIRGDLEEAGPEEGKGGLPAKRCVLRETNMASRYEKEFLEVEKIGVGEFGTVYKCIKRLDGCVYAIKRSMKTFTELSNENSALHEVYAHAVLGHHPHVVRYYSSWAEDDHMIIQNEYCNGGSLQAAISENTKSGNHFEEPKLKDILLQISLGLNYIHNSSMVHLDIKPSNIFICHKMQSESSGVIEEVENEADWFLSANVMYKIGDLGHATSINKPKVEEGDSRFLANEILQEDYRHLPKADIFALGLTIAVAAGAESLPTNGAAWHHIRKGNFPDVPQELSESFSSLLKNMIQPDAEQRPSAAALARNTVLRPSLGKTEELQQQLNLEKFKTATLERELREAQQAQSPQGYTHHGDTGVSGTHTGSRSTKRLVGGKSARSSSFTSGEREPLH
T4 sequence (P23443 whole entry): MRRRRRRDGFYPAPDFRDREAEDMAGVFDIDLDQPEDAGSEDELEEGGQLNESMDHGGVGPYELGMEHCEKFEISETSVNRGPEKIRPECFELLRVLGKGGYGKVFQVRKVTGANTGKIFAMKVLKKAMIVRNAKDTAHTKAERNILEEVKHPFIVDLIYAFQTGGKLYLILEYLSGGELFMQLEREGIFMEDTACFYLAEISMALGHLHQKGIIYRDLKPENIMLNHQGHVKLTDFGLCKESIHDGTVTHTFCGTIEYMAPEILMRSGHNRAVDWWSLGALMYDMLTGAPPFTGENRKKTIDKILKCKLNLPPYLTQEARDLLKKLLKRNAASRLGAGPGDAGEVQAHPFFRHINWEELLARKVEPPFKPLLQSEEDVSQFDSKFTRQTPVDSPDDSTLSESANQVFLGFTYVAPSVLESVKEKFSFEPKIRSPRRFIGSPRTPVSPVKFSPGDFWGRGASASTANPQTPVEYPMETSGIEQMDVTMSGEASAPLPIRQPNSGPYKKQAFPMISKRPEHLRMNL
Chain of EGFR(L747-T751del,Sins) (P00533 with tags, fused parts or gaps DEL747-750/T751S): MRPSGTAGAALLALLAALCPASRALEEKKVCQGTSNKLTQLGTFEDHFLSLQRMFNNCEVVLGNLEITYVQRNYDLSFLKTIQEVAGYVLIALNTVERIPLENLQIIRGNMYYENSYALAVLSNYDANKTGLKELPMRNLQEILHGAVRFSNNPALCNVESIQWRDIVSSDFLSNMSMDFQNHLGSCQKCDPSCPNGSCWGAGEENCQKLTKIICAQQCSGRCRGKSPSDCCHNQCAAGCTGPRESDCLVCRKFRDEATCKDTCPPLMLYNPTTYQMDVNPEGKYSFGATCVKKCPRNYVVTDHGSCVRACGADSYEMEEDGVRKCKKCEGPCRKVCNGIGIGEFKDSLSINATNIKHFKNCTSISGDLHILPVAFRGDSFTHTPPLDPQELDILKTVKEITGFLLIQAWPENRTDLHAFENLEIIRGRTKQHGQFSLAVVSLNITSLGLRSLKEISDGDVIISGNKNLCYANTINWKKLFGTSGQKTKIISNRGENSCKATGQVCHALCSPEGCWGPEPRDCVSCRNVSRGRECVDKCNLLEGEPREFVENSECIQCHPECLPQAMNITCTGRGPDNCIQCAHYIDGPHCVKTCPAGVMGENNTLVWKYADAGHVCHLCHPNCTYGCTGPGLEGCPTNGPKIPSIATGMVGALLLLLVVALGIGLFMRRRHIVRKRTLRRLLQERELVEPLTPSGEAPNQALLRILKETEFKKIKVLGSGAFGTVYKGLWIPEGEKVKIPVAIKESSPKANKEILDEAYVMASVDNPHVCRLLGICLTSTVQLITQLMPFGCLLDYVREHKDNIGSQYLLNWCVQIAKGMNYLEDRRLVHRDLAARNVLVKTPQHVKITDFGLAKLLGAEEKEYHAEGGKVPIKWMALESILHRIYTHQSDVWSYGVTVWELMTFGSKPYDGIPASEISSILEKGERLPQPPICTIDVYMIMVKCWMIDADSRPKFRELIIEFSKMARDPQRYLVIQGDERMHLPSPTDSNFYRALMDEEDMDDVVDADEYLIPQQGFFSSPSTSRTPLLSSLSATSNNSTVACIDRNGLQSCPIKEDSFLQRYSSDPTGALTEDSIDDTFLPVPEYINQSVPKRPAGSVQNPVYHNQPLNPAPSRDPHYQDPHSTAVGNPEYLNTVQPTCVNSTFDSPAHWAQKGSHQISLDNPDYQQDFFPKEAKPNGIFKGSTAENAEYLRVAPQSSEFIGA
T5 sequence (Q16539 whole entry): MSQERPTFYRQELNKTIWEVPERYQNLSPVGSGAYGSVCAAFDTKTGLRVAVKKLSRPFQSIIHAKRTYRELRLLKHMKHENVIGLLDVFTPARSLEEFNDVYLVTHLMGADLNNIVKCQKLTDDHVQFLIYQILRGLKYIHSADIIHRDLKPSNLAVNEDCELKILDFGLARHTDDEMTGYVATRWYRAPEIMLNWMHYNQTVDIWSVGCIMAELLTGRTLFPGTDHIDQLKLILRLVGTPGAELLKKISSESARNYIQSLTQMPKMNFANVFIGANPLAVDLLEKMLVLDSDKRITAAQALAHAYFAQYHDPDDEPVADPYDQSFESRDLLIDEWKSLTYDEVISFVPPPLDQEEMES

Take `CNCc1ccc(-c2[nH]c3cc(F)cc4c3c2CCNC4=O)cc1` [Rucaparib]: the percent of control binding at 10 µM on BTK (setting [1]) stood at 83%; on EGFR(L747-T751del,Sins) (setting [1]) it was 86%; at MARK4 (setting [1]), 86%; on MUSK (setting [1]), 96%; at PFTAIRE2 (setting [1]) it was 100%; at S6K1 (setting [1]), 60%. Also, the percent of control binding at 10 µM came out at 65% on SBK1 (setting [1]), 100% on WEE2 (setting [1]), 90% on p38-alpha (setting [1]) and 58% on p38-gamma (setting [1]).

Consider `Cn1ncnc1[C@H]1c2n[nH]c(=O)c3cc(F)cc(c23)N[C@@H]1c1ccc(F)cc1` [Talazoparib], for which the percent of control binding at 10 µM stood at 100% on BTK (setting [2]); 89% on EGFR(L747-T751del,Sins) (setting [2]); 100% on MARK4 (setting [2]); 100% at MUSK (setting [2]); 100% at PFTAIRE2 (setting [2]); 62% at S6K1 (setting [2]). In addition, the percent of control binding at 10 µM at SBK1 (setting [2]) is 96%; at WEE2 (setting [2]), 100%; on p38-alpha (setting [2]) it was 83%; at p38-gamma (setting [2]), 60%.

In the case of `NC(=O)c1cccc2cn(-c3ccc([C@@H]4CCCNC4)cc3)nc12` [Niraparib], the percent of control binding at 10 µM at BTK (setting [3]) came to 95%; on EGFR(L747-T751del,Sins) (setting [3]), 90%; at MARK4 (setting [3]) it was 98%; on MUSK (setting [3]), 82%; at PFTAIRE2 (setting [3]), 96%; on S6K1 (setting [3]) it was 94%. The percent of control binding at 10 µM was determined as 83% at SBK1 (setting [3]), 100% on WEE2 (setting [3]), 95% at p38-alpha (setting [3]) and 48% on p38-gamma (setting [3]).

For the compound `O=C(c1cc(Cc2n[nH]c(=O)c3ccccc23)ccc1F)N1CCN(C(=O)C2CC2)CC1` [Olaparib], the percent of control binding at 10 µM on BTK (setting [4]) was 86%; at EGFR(L747-T751del,Sins) (setting [4]), 81%; at MARK4 (setting [4]) it was 88%; on MUSK (setting [4]) it was 100%; on PFTAIRE2 (setting [4]) it was 100%; on S6K1 (setting [4]), 73%. In addition, the percent of control binding at 10 µM at SBK1 (setting [4]) came to 95%; on WEE2 (setting [4]), 100%; on p38-alpha (setting [4]), 100%; on p38-gamma (setting [4]), 83%.
